Values of other authors in publication PMC11785675, “Phase Ib study of the oral PI3Kδ inhibitor linperlisib in patients with advanced solid tumors” (International Journal of Clinical Oncology, 2024).

Tests used:
[1] = test system: thymic epithelial tumors cells carrying mutant PI3K subunits; design: method as in PMID 27117832; conditions: in vitro; cited from earlier work
patients [2] = test system: patients; design: method as in PMID 31619463; conditions: cited from earlier work
patients [3] = test system: patients; design: method as in PMID 27672108; conditions: cited from earlier work
advanced solid tumors [4] = test system: advanced solid tumors; design: method as in PMID 27672108; conditions: 48 patients with advanced solid tumors, cited from earlier work
[5] = test system: advanced or refractory solid tumors; design: method as in PMID 27915408; conditions: 10 Japanese patients, cited from earlier work
patients [6] = conditions: 150 mg twice daily; 12 patients; cited from earlier work
HCC cells = test system: HCC cells; design: method as in PMID 24919154, PMID 33093155; conditions: cited from earlier work
breast cancer = test system: breast cancer; design: method as in PMID 24919154, PMID 33093155; conditions: cited from earlier work
advanced solid tumors [7] = test system: advanced solid tumors; design: method as in PMID 35288468; conditions: parsaclisib monotherapy; five patients; cited from earlier work
[8] = comparison drugs; no reference given; cited from earlier work

## CS(=O)(=O)N1CCN(Cc2cc3nc(-c4cccc5[nH]ncc45)nc(N4CCOCC4)c3s2)CC1 [GDC-0941]
[1]
  Antitumor activity: in vitro antitumor activity

## COc1c(OCCCN2CCOCC2)ccc2c1N=C(NC(=O)c1cnc(N)nc1)N1CCN=C21 [copanlisib]
Patients [2]
  TEAE fatigue, all grade: 46.0%
  TEAE hyperglycemia, grade 3: 22.2%
  TEAE hyperglycemia, grade 4: 1.6%
  TEAE hypertension, all grade: 41.3%
  TEAE hypertension, grade 3: 30.2%
  TEAE hypertension, grade 4: 0
  TEAE hypophosphatemia, grade 3: 11.1%
  TEAE hypophosphatemia, grade 4: 0
  TEAE lymphocyte count decreased, grade 3: 7.9%
  TEAE lymphocyte count decreased, grade 4: 4.8%
Patients [3]; 49 patients
  Patients with AEs possibly related to copanlisib: 86%
Patients [3]
  Drug-related grade 3 AE hyperglycemia: 30%
  Drug-related grade 3 AE hypertension: 14%
  Drug-related grade 3 AE rash: 7%
  TRAE hyperglycemia, all grades: 63%
  TRAE hypertension, all grades: 21%
  TRAE nausea, all grades: 37%
Advanced solid tumors [4]
  Patients achieving stable disease: 15 patients
Advanced solid tumors [4]; endometrial carcinoma with PIK3CA and PTEN mutations
  Patients achieving CR: one
Advanced solid tumors [4]; metastatic breast cancer
  Patients with PR: two
[5]; 95% CI 1–40
  3-month PFS rate: 12%
[5]; 95% CI 21–82
  Median PFS: 52 days
[5]
  CR or PR: no patients achieved a CR or PR
  DCR: 40.0%

## CC[C@H](Nc1ncnc2[nH]cnc12)c1nc2cccc(F)c2c(=O)n1-c1ccccc1 [idelalisib]
Patients [6]
  Grade ≥ 3 TEAE increased ALT: 25%
  Grade ≥ 3 TEAE increased AST: 41.7%
  Grade ≥ 3 TEAE maculopapular rash: 25%
  TEAE increased ALT: 33.3%
  TEAE increased AST: 41.7%
  TEAE maculopapular rash: 25%
  TEAE pyrexia: 50%

## Fc1ccc2[nH]ccc2c1-c1nc(N2CCOCC2)c2sc(CN3CCN(CC4CC4)CC3)cc2n1 [PI-3065]
HCC cells
  Apoptosis of HCC cells: directly induce apoptosis of HCC cells
Breast cancer
  Growth and metastasis of breast cancer: significantly inhibit growth and metastasis of breast cancer

## CCOc1c([C@H](C)n2nc(C)c3c(N)ncnc32)cc(Cl)c(F)c1[C@@H]1CNC(=O)C1 [parsaclisib]
Advanced solid tumors [7]
  CR or PR: none achieved a CR or PR

## C[C@H](Nc1ncnc2[nH]cnc12)c1cc2cccc(Cl)c2c(=O)n1-c1ccccc1 [duvelisib, reference compound]
[8]
  Route of excretion: predominantly excreted via the intestines
